This is an account of results in patent US8163779B2, “Glucokinase activators” (Takeda San Diego, Inc., priority 2006, dated 2012).

SMILES strings stand for the structures. Where only a bound is given, the exact number is not on record here.

In this experiment the target is T1, glucokinase (GK) (Homo sapiens, UniProt P35557).
T1 construct: I.D. No. 1 corresponds to residues 12-465 of glucokinase; made in house; host or cells: E. coli DH10b-T1r
T1 sequence (P35557 with tags, fused parts or gaps isoform P35557-2): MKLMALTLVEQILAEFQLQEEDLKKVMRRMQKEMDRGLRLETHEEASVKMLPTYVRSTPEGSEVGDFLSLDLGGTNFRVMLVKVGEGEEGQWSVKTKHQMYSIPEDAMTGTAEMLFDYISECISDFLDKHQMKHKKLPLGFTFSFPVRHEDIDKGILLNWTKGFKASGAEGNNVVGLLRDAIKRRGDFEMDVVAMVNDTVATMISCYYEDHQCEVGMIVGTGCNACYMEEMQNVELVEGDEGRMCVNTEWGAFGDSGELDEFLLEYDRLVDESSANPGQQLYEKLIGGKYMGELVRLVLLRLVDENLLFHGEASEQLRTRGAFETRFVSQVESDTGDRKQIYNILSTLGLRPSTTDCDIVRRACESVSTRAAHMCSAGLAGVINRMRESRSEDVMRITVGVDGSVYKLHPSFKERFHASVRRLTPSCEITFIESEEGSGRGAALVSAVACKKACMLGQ
Nature of the experiment: enzymatic glucokinase activity assay (ATP consumption, KinaseGlo luminescence). In kind it is biochemical. As to conditions: recombinant GK residues 12-465; 5 μM ATP, 5 mM Glucose; Kact = concentration that displays 50% of the maximal increase in GK activity; read-out: pKact. In short, it runs like this:
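Recombinant human glucokinase expressed in E. coli was run in 25 mM Hepes pH 7.2 with 10 mM MgCl2, 1 mM DTT, 5 μM ATP, 5 mM glucose and 2% DMSO for 60 min at room temperature. Remaining ATP was read by KinaseGlo luminescence; pKact came from non-linear curve fits.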
On the technique in general: In Kinase-Glo more light means more ATP remaining.
For `Cc1cc(S(=O)(=O)Cc2cccs2)cc(=O)n1C(CC1CCOCC1)C(=O)Nc1ncc(Cl)s1` (stereo not drawn) [Example 134, N-(5-chlorothiazol-2-yl)-2-(6-methyl-2-oxo-4-(thiophen-2-ylmethylsulfonyl)pyridin-1(2H)-yl)-3-(tetrahydro-2H-pyran-4-yl)propanamide], the EC50 is under 1.58 µM.
As for `Cc1c(S(=O)(=O)C2CCCC2)c(C)c(=O)n([C@@H](CC2CCOCC2)C(=O)Nc2ncc(Cl)s2)c1C` [Example 135, (S)-N-(5-chlorothiazol-2-yl)-2-(4-(cyclopentylsulfonyl)-3,5,6-trimethyl-2-oxopyridin-1(2H)-yl)-3-(tetrahydro-2H-pyran-4-yl)propanamide], the figure is under 1.58 µM; as for `Cc1c(S(=O)(=O)C2CCCC2)c(C)c(=O)n([C@H](CC2CCOCC2)C(=O)Nc2ncc(Cl)s2)c1C` [Example 136, (R)-N-(5-chlorothiazol-2-yl)-2-(4-(cyclopentylsulfonyl)-3,5,6-trimethyl-2-oxopyridin-1(2H)-yl)-3-(tetrahydro-2H-pyran-4-yl)propanamide], 1.58 to 15.8 µM; as for `O=C(Nc1ncc(Cc2ccc(F)cc2)s1)C(CC1CCOCC1)n1ccc(S(=O)(=O)C2CC2)cc1=O` (stereo not drawn) [Example 138, 2-(4-(cyclopropylsulfonyl)-2-oxopyridin-1(2H)-yl)-N-(5-(4-fluorobenzyl)thiazol-2-yl)-3-(tetrahydro-2H-pyran-4-yl)propanamide], 1.58 to 15.8 µM.
As to `O=C(Nc1nccs1)C(CC1CCOCC1)n1cc(S(=O)(=O)N2CCCC2)ccc1=O` (stereo not drawn) [Example 139, 2-(2-oxo-5-(pyrrolidin-1-ylsulfonyl)pyridin-1(2H)-yl)-3-(tetrahydro-2H-pyran-4-yl)-N-(thiazol-2-yl)propanamide], the EC50 lay in the range of 1.58 to 15.8 µM.
Turning to `O=C(Nc1ncc(Cl)s1)C(CC1CCOCC1)n1cc(S(=O)(=O)N2CCCC2)ccc1=O` (stereo not drawn) [Example 140, N-(5-chlorothiazol-2-yl)-2-(2-oxo-5-(pyrrolidin-1ylsulfonyl)pyridin-1(2H)-yl)-3-(tetrahydro-2H-pyran-4-yl)propanamide], the EC50 was in the range of 1.58 to 15.8 µM.
For `Cc1cc(S(=O)(=O)Cc2ccco2)cc(=O)n1[C@@H](CC1CCOCC1)C(=O)Nc1ncc(Cl)s1` [Example 141, (S)-N-(5-chlorothiazol-2-yl)-2-(4-(furan-2-ylmethylsulfonyl)-6-methyl-2-oxopyridin-1(2H)-yl)-3-(tetrahydro-2H-pyran-4-yl)propanamide] the value was under 1.58 µM; for `Cc1cc(S(=O)(=O)Cc2ccco2)cc(=O)n1[C@H](CC1CCOCC1)C(=O)Nc1ncc(Cl)s1` [Example 142, (R)-N-(5-chlorothiazol-2-yl)-2-(4-(furan-2-ylmethylsulfonyl)-6-methyl-2-oxopyridin-1(2H)-yl)-3-(tetrahydro-2H-pyran-4-yl)propanamide], over 15.8 µM.
As to `Cc1cc(-c2ncco2)cc(=O)n1C(CC1CCCCC1)C(=O)Nc1ncc(Cl)s1` (stereo not drawn) [Example 143, N-(5-chlorothiazol-2-yl)-3-cyclohexyl-2-(6-methyl-4-(oxazol-2-yl)-2-oxopyridin-1(2H)-yl)propanamide], the EC50 was 1.58 to 15.8 µM.
For `Cc1cc(S(=O)(=O)Cc2ccco2)cc(=O)n1C(CC1CCOCC1)C(=O)Nc1ncc(Cc2ccc(F)cc2)s1` (stereo not drawn) [Example 144, N-(5-(4-fluorobenzyl)thiazol-2-yl)-2-(4-(furan-2-ylmethylsulfonyl)-6-methyl-2-oxopyridin-1(2H)-yl)-3-(tetrahydro-2H-pyran-4-yl)propanamide], the EC50 fell in the range of 1.58 to 15.8 µM.
As for `O=C(Nc1ncc(CN2CCOCC2)s1)C(CC1CCOCC1)n1ccc(S(=O)(=O)C2CC2)cc1=O` (stereo not drawn) [Example 145, 2-(4-(cyclopropylsulfonyl)-2-oxopyridin-1(2H)-yl)-N-(5-(morpholinomethyl)thiazol-2-yl)-3-(tetrahydro-2H-pyran-4-yl)propanamide], the figure is over 15.8 µM.
For `O=C(Nc1ncc(Cl)s1)C(CC1CCOCC1)n1ccc(S(=O)(=O)CC(F)(F)F)cc1=O` (stereo not drawn) [Example 146, N-(5-chlorothiazol-2-yl)-2-(2-oxo-4-(2,2,2-trifluoroethylsulfonyl)pyridin-1(2H)-yl)-3-(tetrahydro-2H-pyran-4-yl)propanamide], the EC50 is over 15.8 µM.
Regarding `CN1CCN(Cc2cnc(NC(=O)C(CC3CCOCC3)n3ccc(S(=O)(=O)C4CC4)cc3=O)s2)CC1` (stereo not drawn) [Example 147, 2-(4-(cyclopropylsulfonyl)-2-oxopyridin-1(2H)-yl)-N-(5-((4-methylpiperazin-1-yl)methyl)thiazol-2-yl)-3-(tetrahydro-2H-pyran-4-yl)propanamide], the EC50 was over 15.8 µM.
As to `O=C(Nc1ncc(Cl)s1)[C@@H](CC1CCOCC1)n1ccc(S(=O)(=O)CC(F)(F)F)cc1=O` [Example 148, (R)-N-(5-chlorothiazol-2-yl)-2-(2-oxo-4-(2,2,2-trifluoroethylsulfonyl)pyridin-1(2H)-yl)-3-(tetrahydro-2H-pyran-4-yl)propanamide], the EC50 is over 15.8 µM.
As for `O=C(Nc1ncc(Cl)s1)[C@H](CC1CCOCC1)n1ccc(S(=O)(=O)CC(F)(F)F)cc1=O` [Example 149, (S)-N-(5-chlorothiazol-2-yl)-2-(2-oxo-4-(2,2,2-trifluoroethylsulfonyl)pyridin-1(2H)-yl)-3-(tetrahydro-2H-pyran-4-yl)propanamide], the EC50 is 1.58 to 15.8 µM.
Turning to `CN(C)C(=O)CN1CCN(Cc2cnc(NC(=O)C(CC3CCOCC3)n3ccc(S(=O)(=O)C4CC4)cc3=O)s2)CC1` (stereo not drawn) [Example 150, 2-(4-(cyclopropylsulfonyl)-2-oxopyridin-1(2H)-yl)-N-(5-((4-(2-(dimethylamino)-2-oxoethyl)piperazin-1-yl)methyl)thiazol-2-yl)-3-(tetrahydro-2H-pyran-4-yl)propanamide], the EC50 is over 15.8 µM.
Consider `Cc1c(S(=O)(=O)C2CCCC2)cc(=O)n([C@@H](CC2CCOCC2)C(=O)Nc2ncc(F)s2)c1C` [Example 151, (S)-2-(4-(cyclopentylsulfonyl)-5,6-dimethyl-2-oxopyridin-1(2H)-yl)-N-(5-fluorothiazol-2-yl)-3-(tetrahydro-2H-pyran-4-yl)propanamide], for which the EC50 was under 1.58 µM.
As for `Cc1c(S(=O)(=O)C2CCCC2)cc(=O)n([C@H](CC2CCOCC2)C(=O)Nc2ncc(F)s2)c1C` [Example 153, (R)-2-(4-(cyclopentylsulfonyl)-5,6-dimethyl-2-oxopyridin-1(2H)-yl)-N-(5-fluorothiazol-2-yl)-3-(tetrahydro-2H-pyran-4-yl)propanamide], the figure is under 1.58 µM; as for `Cc1cc(S(=O)(=O)C2CC2)c(N)c(=O)n1[C@H](CC1CCCC1)C(=O)Nc1ncc(F)s1` [Example 154, (R)-2-(3-amino-4-(cyclopropylsulfonyl)-6-methyl-2-oxopyridin-1(2H)-yl)-3-cyclopentyl-N-(5-fluorothiazol-2-yl)propanamide], 1.58 to 15.8 µM; as for `Cc1cc(S(=O)(=O)C2CC2)c(N)c(=O)n1[C@@H](CC1CCCC1)C(=O)Nc1ncc(F)s1` [Example 155, (S)-2-(3-amino-4-(cyclopropylsulfonyl)-6-methyl-2-oxopyridin-1(2H)-yl)-3-cyclopentyl-N-(5-fluorothiazol2-yl)propanamide], 1.58 to 15.8 µM.
For `CC(=O)Nc1ccc(=O)n(C(CC2CCOCC2)C(=O)Nc2ncc(Cl)s2)c1` (stereo not drawn) [Example 156, 2-(5-acetamido-2-oxopyridin-1(2H)-yl)-N-(5-chlorothiazol-2-yl)-3-(tetrahydro-2H-pyran-4-yl)propanamide], the EC50 is over 15.8 µM.
